Here are results for three compounds from US20160038435A1 (Teva Pharmaceutical Industries Ltd., priority 2013, published 2016).

Series [1] in a line: Concentration of saturated donor solutions applied onto the skin. In kind it is physicochemical.
A short description of series [2]: Saturation solubilities in solvents. The series is classed as physicochemical. The protocol: Saturation solubilities were measured in solvents typically used for incorporating of the drug into the pressure sensitive adhesives (PSA). Additional solubilities were measured in water, Phosphate buffered saline (PBS) Buffer (acceptor medium for skin permeation) and three different donor medium. All solubilities were measured at room temperature.

The subject of series [3] is genes related to antigen presentation. Conditions: mainly via the NFkB pathway; cited from earlier work.

What is called Solubility is how much of the substance goes into solution per volume. A low value points to a poorly soluble substance.

Converted amounts (≈) assume the structure as drawn. Structures can show the parent of a compound that is named as a salt.

`CCN(C(=O)c1c(O)c2c(Cl)cccc2n(C)c1=O)c1ccccc1` [Laquinimod Sodium Salt, Laquinimod sodium]: the “c of saturated solution” value amounted to 1.17 mg/mL in series [1] (EtOH/Dodecanol 95/5, saturated solution containing solid API, listed as Laquinimod-Na); 4.30 mg/mL in series [1] (EtOH/Oleic acid 85/15, saturated solution containing solid API, listed as Laquinimod-Na); 10.00 mg/mL in series [1] (Propylene glycol (PG)/water 8/2, saturated solution containing solid API, listed as Laquinimod-Na).

`CCN(C(=O)c1c(O)c2c(Cl)cccc2n(C)c1=O)c1ccccc1` [Laquinimod free acid]: the Solubility in series [2] (2-Propanol, room temperature) came to 1662 µg/mL (≈ 4.66 mM); in series [2] (Acetone, room temperature) it was 4884 µg/mL (≈ 13.7 mM); in series [2] (Ethanol, room temperature) it was 4098 µg/mL (≈ 11.5 mM); in series [2] (Ethanol/Dodecanol (95:5), room temperature), 4209 µg/mL (≈ 11.8 mM); in series [2] (Ethanol/Oleic acid (85:15), room temperature) it was 4785 µg/mL (≈ 13.4 mM); in series [2] (Ethylacetate, room temperature), 3909 µg/mL (≈ 11 mM). Also, the Solubility came to 1296 µg/mL (≈ 3.63 mM) in series [2] (PBS pH 7.4, room temperature); 1281 µg/mL (≈ 3.59 mM) in series [2] (Propylenglycol/water (80:20), room temperature); 24 µg/mL (≈ 0.0673 mM) in series [2] (Water, room temperature); 0.6 µg/mL (≈ 0.00168 mM) in series [2] (n-Heptane, room temperature). Besides, the “c of saturated solution” value came out at 3.49 mg/mL in series [1] (EtOH/Dodecanol 95/5, saturated solution containing solid API); 3.93 mg/mL in series [1] (EtOH/Oleic acid 85/15, saturated solution containing solid API); 1.22 mg/mL in series [1] (Propylene glycol (PG)/water 8/2, saturated solution containing solid API).

As for `CCN(C(=O)c1c(O)c2c(Cl)cccc2n(C)c1=O)c1ccccc1` [laquinimod], the “effect on genes related to antigen presentation and inflammatory pathways” value in series [3] is “induced suppression of genes related to antigen presentation and corresponding inflammatory pathways”.
